Test results from patent publication US12568972B2, “Pyridazinol compounds and derivatives, preparation methods, herbicidal compositions and applications thereof” (Qingdao Kingagroot Chemical Compound Co., Ltd., priority 2018, dated 2026).

Legend:
Assay in all cases: Post-emergence test, weed control effect
Format in all cases: in vivo
Details in all cases: Dose 3000 g/ha, after 3 weeks
[1] = tested on: Amaranthus retroflexus
Summary of the method: (§1)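 Weeds sown in soil-filled pots and sprayed at 2-3 leaf stage (2-3 weeks after sowing) with compound in acetone/Tween-80/water plus 80% vegetable oil methyl ester synergist at 1500 g/ha. After 3 weeks in the greenhouse, fresh-weight growth inhibition scored on a 0-10 scale (10 = completely dead).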

[2] = tested on: Chenopodiaceae
Summary of the method: as §1

[3] = tested on: Rorippa indica
Summary of the method: as §1

[4] = tested on: Veronica polita
Summary of the method: as §1

Oc1cc(C(F)(F)F)nnc1-c1ccc(C(F)(F)F)cc1Cl [Compound 769]
10: weed control effect (activity level), Amaranthus retroflexus [1] | weed control effect (activity level), Chenopodiaceae [2] | weed control effect (activity level), Rorippa indica [3] | weed control effect (activity level), Veronica polita [4]

Oc1cc(C(F)(F)F)nnc1-c1cncc(Cl)c1 [Compound 770]
10: weed control effect (activity level), Amaranthus retroflexus [1] | weed control effect (activity level), Chenopodiaceae [2] | weed control effect (activity level), Rorippa indica [3] | weed control effect (activity level), Veronica polita [4]

Oc1cc(C(F)(F)F)nnc1-c1ccc2c(c1)OCO2 [Compound 771]
10: weed control effect (activity level), Amaranthus retroflexus [1] | weed control effect (activity level), Chenopodiaceae [2] | weed control effect (activity level), Rorippa indica [3] | weed control effect (activity level), Veronica polita [4]

Oc1cc(C(F)(F)F)nnc1-c1ccccc1Br [Compound 772]
10: weed control effect (activity level), Amaranthus retroflexus [1] | weed control effect (activity level), Chenopodiaceae [2] | weed control effect (activity level), Rorippa indica [3] | weed control effect (activity level), Veronica polita [4]

Cn1nccc1-c1nnc(C(F)(F)F)cc1O [Compound 774]
10: weed control effect (activity level), Amaranthus retroflexus [1] | weed control effect (activity level), Chenopodiaceae [2] | weed control effect (activity level), Rorippa indica [3] | weed control effect (activity level), Veronica polita [4]

Cn1nc(F)cc1-c1nnc(C(F)(F)F)cc1O [Compound 775]
10: weed control effect (activity level), Amaranthus retroflexus [1] | weed control effect (activity level), Chenopodiaceae [2] | weed control effect (activity level), Rorippa indica [3] | weed control effect (activity level), Veronica polita [4]

Cn1nc(Cl)cc1-c1nnc(C(F)(F)F)cc1O [Compound 776]
10: weed control effect (activity level), Amaranthus retroflexus [1] | weed control effect (activity level), Chenopodiaceae [2] | weed control effect (activity level), Rorippa indica [3] | weed control effect (activity level), Veronica polita [4]

Cn1nc(Br)cc1-c1nnc(C(F)(F)F)cc1O [Compound 777]
10: weed control effect (activity level), Amaranthus retroflexus [1] | weed control effect (activity level), Chenopodiaceae [2] | weed control effect (activity level), Rorippa indica [3] | weed control effect (activity level), Veronica polita [4]

Cn1nc(I)cc1-c1nnc(C(F)(F)F)cc1O [Compound 778]
10: weed control effect (activity level), Amaranthus retroflexus [1] | weed control effect (activity level), Chenopodiaceae [2] | weed control effect (activity level), Rorippa indica [3] | weed control effect (activity level), Veronica polita [4]

CCc1cc(-c2nnc(C(F)(F)F)cc2O)n(C)n1 [Compound 780]
10: weed control effect (activity level), Amaranthus retroflexus [1] | weed control effect (activity level), Chenopodiaceae [2] | weed control effect (activity level), Rorippa indica [3] | weed control effect (activity level), Veronica polita [4]

Cn1nc(C2CC2)cc1-c1nnc(C(F)(F)F)cc1O [Compound 781]
10: weed control effect (activity level), Amaranthus retroflexus [1] | weed control effect (activity level), Chenopodiaceae [2] | weed control effect (activity level), Rorippa indica [3] | weed control effect (activity level), Veronica polita [4]

COc1cc(-c2nnc(C(F)(F)F)cc2O)n(C)n1 [Compound 782]
10: weed control effect (activity level), Amaranthus retroflexus [1] | weed control effect (activity level), Chenopodiaceae [2] | weed control effect (activity level), Rorippa indica [3] | weed control effect (activity level), Veronica polita [4]

CCOc1cc(-c2nnc(C(F)(F)F)cc2O)n(C)n1 [Compound 783]
10: weed control effect (activity level), Amaranthus retroflexus [1] | weed control effect (activity level), Chenopodiaceae [2] | weed control effect (activity level), Rorippa indica [3] | weed control effect (activity level), Veronica polita [4]

Cn1nc(OCc2ccccc2)cc1-c1nnc(C(F)(F)F)cc1O [Compound 784]
10: weed control effect (activity level), Amaranthus retroflexus [1] | weed control effect (activity level), Chenopodiaceae [2] | weed control effect (activity level), Rorippa indica [3] | weed control effect (activity level), Veronica polita [4]

CN(C)c1cc(-c2nnc(C(F)(F)F)cc2O)n(C)n1 [Compound 787]
10: weed control effect (activity level), Amaranthus retroflexus [1] | weed control effect (activity level), Chenopodiaceae [2] | weed control effect (activity level), Rorippa indica [3] | weed control effect (activity level), Veronica polita [4]

Cn1nc(C#N)cc1-c1nnc(C(F)(F)F)cc1O [Compound 791]
10: weed control effect (activity level), Amaranthus retroflexus [1] | weed control effect (activity level), Chenopodiaceae [2] | weed control effect (activity level), Rorippa indica [3] | weed control effect (activity level), Veronica polita [4]

Cn1nc(C(F)F)cc1-c1nnc(C(F)(F)F)cc1O [Compound 794]
10: weed control effect (activity level), Amaranthus retroflexus [1] | weed control effect (activity level), Chenopodiaceae [2] | weed control effect (activity level), Rorippa indica [3] | weed control effect (activity level), Veronica polita [4]

Cc1nn(C)c(-c2nnc(C(F)(F)F)cc2O)c1F [Compound 803]
10: weed control effect (activity level), Amaranthus retroflexus [1] | weed control effect (activity level), Chenopodiaceae [2] | weed control effect (activity level), Rorippa indica [3] | weed control effect (activity level), Veronica polita [4]

Cn1ncc(F)c1-c1nnc(C(F)(F)F)cc1O [Compound 804]
10: weed control effect (activity level), Amaranthus retroflexus [1] | weed control effect (activity level), Chenopodiaceae [2] | weed control effect (activity level), Rorippa indica [3] | weed control effect (activity level), Veronica polita [4]

Cn1ncc(Cl)c1-c1nnc(C(F)(F)F)cc1O [Compound 805]
10: weed control effect (activity level), Amaranthus retroflexus [1] | weed control effect (activity level), Chenopodiaceae [2] | weed control effect (activity level), Rorippa indica [3] | weed control effect (activity level), Veronica polita [4]

Cn1ncc(Br)c1-c1nnc(C(F)(F)F)cc1O [Compound 806]
10: weed control effect (activity level), Amaranthus retroflexus [1] | weed control effect (activity level), Chenopodiaceae [2] | weed control effect (activity level), Rorippa indica [3] | weed control effect (activity level), Veronica polita [4]

Cn1ncc(I)c1-c1nnc(C(F)(F)F)cc1O [Compound 807]
10: weed control effect (activity level), Amaranthus retroflexus [1] | weed control effect (activity level), Chenopodiaceae [2] | weed control effect (activity level), Rorippa indica [3] | weed control effect (activity level), Veronica polita [4]

Cc1cnn(C)c1-c1nnc(C(F)(F)F)cc1O [Compound 808]
10: weed control effect (activity level), Amaranthus retroflexus [1] | weed control effect (activity level), Chenopodiaceae [2] | weed control effect (activity level), Rorippa indica [3] | weed control effect (activity level), Veronica polita [4]
